ChEMBL document CHEMBL1795319, “Design, synthesis and antifungal evaluation of 1-(2-(2,4-difluorophenyl)-2-hydroxy-3-(1H-1,2,4-triazol-1-yl)propyl)-1H-1,2,4-triazol-5(4H)-one” (2011)
Converted amounts (≈) assume the structure as drawn.

Columns and labels:
Assay type in all cases: functional
Candida albicans [1] = experiment: Antifungal activity against Candida albicans SC5314 after 24 hrs by micro-broth dilution method; conditions: SC5314, 24 h
Candida albicans [2] = experiment: Antifungal activity against Candida albicans Y0109 after 24 hrs by micro-broth dilution method; conditions: Y0109, 24 h
Candida tropicalis = experiment: Antifungal activity against Candida tropicalis by micro-broth dilution method
Candida parapsilosis = experiment: Antifungal activity against Candida parapsilosis by micro-broth dilution method; conditions: Lodderomyces parapsilosis
Kluyveromyces marxianus = experiment: Antifungal activity against Candida kefyr by micro-broth dilution method
Cryptococcus neoformans = experiment: Antifungal activity against Cryptococcus neoformans BLS108 after 72 hrs by micro-broth dilution method; conditions: BLS108, 72 h
Trichophyton rubrum = experiment: Antifungal activity against Trichophyton rubrum by micro-broth dilution method
Aspergillus fumigatus = experiment: Antifungal activity against Aspergillus fumigatus by broth microdilution method

`O=C(Nc1ccc(-n2cnn(CC(O)(Cn3cncn3)c3ccc(F)cc3F)c2=O)cc1)c1ccco1` (racemic) gave an MIC80 (Candida albicans [1]) of 0.25 µg/mL (≈ 0.493 µM), an MIC80 (Candida albicans [2]) of 0.25 µg/mL (≈ 0.493 µM) and an MIC80 (Candida tropicalis) of 1 µg/mL (≈ 1.97 µM). For the same compound, the MIC80 (Candida parapsilosis) was 0.0625 µg/mL (≈ 0.123 µM), the MIC80 (Kluyveromyces marxianus) was 4 µg/mL (≈ 7.88 µM) and the MIC80 (Cryptococcus neoformans) was 16 µg/mL (≈ 31.5 µM). The MIC80 (Trichophyton rubrum) was greater than 64 µg/mL and the MIC80 (Aspergillus fumigatus) was greater than 64 µg/mL.
